Assay results taken from PubChem BioAssay (NCI).
Several values for one entry are separate records, joined by “and”; a condition that tells them apart may be missing. Equal values may be shown once.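 Values below derive from 48-hour exposures of cells grown in 96-well plates, with endpoints linearly interpolated between the two concentrations bracketing the appropriate inhibition level. GI50 = concentration required for 50% inhibition of growth. TGI marks complete inhibition of growth.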

What was measured:
Assay in all cases: DTP human tumour cell line panel, 48 h
MDA-N = tested on: MDA-N
SNB-78 CNS = tested on: SNB-78 CNS
RXF-631 renal = tested on: RXF-631 renal
DLD-1 colon = tested on: DLD-1 colon
HOP-18 NSCLC = tested on: HOP-18 NSCLC
DMS 114 small cell lung = tested on: DMS 114 small cell lung
LXFL 529 NSCLC = tested on: LXFL 529 NSCLC
M19-MEL melanoma = tested on: M19-MEL melanoma
XF 498 CNS = tested on: XF 498 CNS

| SMILES | TGI (SNB-78 CNS) [µM] | TGI (RXF-631 renal) [µM] | TGI (DLD-1 colon) [µM] | TGI (HOP-18 NSCLC) [µM] | TGI (DMS 114 small cell lung) [µM] | TGI (LXFL 529 NSCLC) [µM] | TGI (M19-MEL melanoma) [µM] | TGI (XF 498 CNS) [µM] | other results |
| --- | --- | --- | --- | --- | --- | --- | --- | --- | --- |
| CC(=O)NC(CS)C(=O)O (stereo not drawn) |  |  |  |  |  |  |  |  | TGI (MDA-N): > 100 µM |
| COc1cccc(N2C(=O)/C(=C/c3ccc(N(CCC#N)CCC#N)cc3)N=C2c2cc([N+](=O)[O-])ccc2Cl)c1 | > 100 | > 100 | > 100 | > 100 | > 100 | > 100 |  |  |  |
| CC12CC/C(=N/NC(N)=O)C3C1CCCC32 |  | > 100 | > 100 | > 100 | > 100 | > 100 | > 100 |  |  |
| Cc1ccc(C(=O)C(c2nc3n(c2O)C(=N)N=N3)c2nc3n(c2O)C(=N)N=N3)cc1 (stereo not drawn) | > 100 |  | > 100 |  | > 100 | > 100 | > 100 | > 100 |  |
| C=C1C[C@@H](O)[C@@H](Br)C(C)(C)[C@]12CCC(C)(Br)C(Cl)C2 (stereo partly drawn) |  |  |  |  |  |  |  |  | GI50 (MDA-N): 17.7 µM; TGI (MDA-N): > 50 µM and 36.2 µM |
| CCC1(OC(=O)CNC)C(=O)OCc2c1cc1n(c2=O)Cc2cc3ccccc3nc2-1 (stereo not drawn) | > 86.9 | 0.0575 | 26.8 | 0.812 |  | 3.64 | 0.823 |  | TGI (MDA-N): 0.386 µM |
| C=C[C@H]1CN2CCc3c([nH]c4c([C@@H]5CCCN5C)c(O)ccc34)[C@@H]2C[C@@H]1C[C@H]1c2[nH]c3ccccc3c2CCN1C |  |  |  |  |  |  |  |  | GI50 (MDA-N): 1.5 µM; TGI (MDA-N): 3.06 µM and 3.3 µM |
| O=C(Nc1ccn(C2CC(I)C(COC(c3ccccc3)(c3ccccc3)c3ccccc3)O2)c(=O)n1)c1ccccc1 (stereo not drawn) |  |  |  |  |  |  |  |  | TGI (MDA-N): 14.6 µM |
| O=c1c2ccccc2nc2n1CCc1c-2[nH]c2cc3c(cc12)OCO3 |  |  |  |  |  |  |  |  | TGI (MDA-N): > 25 µM |
| COC(=O)C(=O)C(C#N)c1cccc(Cl)c1 (stereo not drawn) | > 100 |  | > 100 | > 100 |  | > 100 | > 100 | > 100 |  |
| O=C[C@]12CC=C3OC4OC5(CCCCC5)OC4[C@H]3[C@H]1C(=O)C=CC2=O (stereo partly drawn) | 29.4 | > 100 | 38.9 |  | 50.8 | 39.8 | 54.5 | 27.8 |  |
| Cn1nc(-c2ccccc2)c2c(/C=C/c3ccc(Cl)cc3)onc2c1=O |  | > 100 | > 100 | 26.8 | > 100 | > 100 | > 100 | 43.6 |  |
| Cc1cc2nc3c(=O)[nH]c(=O)nc-3n(CC(O)C(O)C(O)CO)c2cc1N (stereo not drawn) | > 100 | > 100 |  | > 100 | > 100 | > 100 | > 100 |  |  |
| CC12CCCC(C#N)(C1)OC2=O (stereo not drawn) | > 100 | > 100 | > 100 |  |  | > 100 | > 100 | > 100 |  |
| CC1NC(C(=O)O)Cc2cc(O)c(O)cc21 (stereo not drawn) |  |  |  |  |  |  |  |  | TGI (MDA-N): > 100 µM |
| CN(C)CCCOc1ccc(/C=C2/CCC/C(=C/c3ccc(OCCCN(C)C)cc3)C2=O)cc1 | 9.06 |  | 3.21 | 12.3 | 3.11 | 7.12 |  |  |  |
| O=C1C(Cl)=C(Cl)C(=O)N1c1ccccc1Cl | > 100 |  | > 94.7 | > 100 | > 100 | > 86.3 | > 100 | > 100 |  |
| N#CC(C(=O)/C(=N/NC(=O)c1ccccc1O)C(C#N)c1ccc(Br)cc1)c1ccc(Br)cc1 (stereo not drawn) | 25.5 | 28.5 | 25.6 | 20.5 | 33 | 13.4 | 25.2 | 26.6 |  |
| N#CCCN(C1=NN(C(=O)CC(=O)Nc2ccc(Cl)cc2)C(c2ccccc2)C1)c1ccc(Cl)cc1 (stereo not drawn) | > 100 | > 100 | > 100 | > 100 | > 100 | > 100 | > 100 | > 100 |  |

| SMILES | TGI (SNB-78 CNS) [µM] | TGI (RXF-631 renal) [µM] | TGI (DLD-1 colon) [µM] | TGI (HOP-18 NSCLC) [µM] | TGI (DMS 114 small cell lung) [µM] | TGI (LXFL 529 NSCLC) [µM] | TGI (M19-MEL melanoma) [µM] | TGI (XF 498 CNS) [µM] | other results |
| --- | --- | --- | --- | --- | --- | --- | --- | --- | --- |
| CC[O-].CC[O-].COc1ccc(C(=O)[CH-]C(C)=O)cc1OC.COc1ccc(C(=O)[CH-]C(C)=O)cc1OC.[Ti+4] | > 100 | > 100 | > 100 | > 100 | > 100 | > 100 |  |  | GI50 (SNB-78 CNS): 72.2 µM; GI50 (RXF-631 renal): 49.4 µM; GI50 (DLD-1 colon): 77.5 µM; GI50 (HOP-18 NSCLC): 29.8 µM; GI50 (DMS 114 small cell lung): > 100 µM; GI50 (LXFL 529 NSCLC): 38.7 µM |
| Cc1ccccc1C=NC12CC3CC(CC(C3)C1)C2 | > 100 | > 100 | > 100 | > 100 | > 100 | > 100 | > 100 |  |  |
| CCC[CH2][Sn]1([CH2]CCC)[O]C(=O)CN=C(C)c2ccccc2[O]1 | 1.7 |  | > 100 | 2.85 | 0.655 | 1.28 | 1.8 | 3.19 | GI50 (SNB-78 CNS): 0.312 µM; GI50 (DLD-1 colon): 1.94 µM; GI50 (XF 498 CNS): 1.74 µM; GI50 (HOP-18 NSCLC): 1.5 µM; GI50 (DMS 114 small cell lung): 0.227 µM; GI50 (LXFL 529 NSCLC): 0.254 µM; GI50 (M19-MEL melanoma): 0.528 µM |
| C/C=C(\C)c1cc(=O)c2c(C)cc3c(c2o1)C(OC)(OC(C)=O)c1c(O)c(C2CC(C)(N(C)C)C(OC(C)=O)C(C)O2)cc(C2CC(N(C)C)C(OC(C)=O)C(C)O2)c1C3=O (stereo not drawn) |  |  |  |  |  |  |  |  | TGI (MDA-N): 4.71 µM |
| O=C(CC(=O)N1N=C(n2ccc3ccccc32)CC1c1ccccc1)Nc1ccc(Cl)cc1 (stereo not drawn) | > 100 | > 100 | > 100 | > 100 | > 100 | > 100 | > 100 |  |  |
| CCc1cccc(C)c1N1C(=O)C(=O)C(c2nc3ccccc3o2)/C(=N/NC(=S)NN)C1=O (stereo not drawn) | > 100 | > 100 | > 100 |  | > 100 | > 100 | > 100 | > 100 |  |
| N#CC(C#N)=Cc1ccc(C(O)P(=O)(O)O)cc1 (stereo not drawn) | > 100 | > 100 | > 100 | > 100 | > 100 | > 100 | > 100 | > 100 |  |
| O=C(O)CCC(=O)Oc1ccc(O)c2c1CCCC2=O | > 100 |  | > 100 | > 100 | > 100 | > 100 | > 100 | 5.84 |  |
| CCOC(=O)NC(=O)c1cn(CCCCCCCCCCC(=O)NCCCN2CCN(CCCNC(=O)CCCCCCCCCCn3cc(C(=O)NC(=O)OCC)c(=O)[nH]c3=O)CC2)c(=O)[nH]c1=O | > 100 |  | > 100 | > 100 | > 100 | > 100 | > 100 | > 100 |  |
| N#CC(C(=O)CCC(=O)Nc1ccc(Cl)cc1)c1ccc(Cl)cc1 (stereo not drawn) | > 100 | > 100 | > 100 | > 100 | > 100 | > 100 | > 100 | > 100 |  |
| Cc1cc(Cl)ccc1NC(=O)CC1SC(=NC(=O)c2ccccc2Cl)NC1=O (stereo not drawn) | 50.9 |  | 34 |  | 41.8 | 32.3 | 35.8 | 32.7 |  |
| COC(=O)CC1C2(C)C3=C(C)C(c4ccoc4)CC3OC2C2OC(=O)C3(C)C=CC(=O)C1(C)C23 (stereo not drawn) |  |  |  |  |  |  |  |  | TGI (MDA-N): 2.93 µM |
| Cc1ccc2nc(Sc3c([N+](=O)[O-])ncn3C)[nH]c2c1 | 76.3 | 32.3 | 49.8 | > 100 | 28.9 |  | 57.2 | 18.9 |  |
| N.N.N.N.N.N#Cc1nn[n-]n1.[Cl-].[Co+3] | > 100 |  | > 100 | > 100 |  | > 100 |  |  | GI50 (SNB-78 CNS): > 100 µM; GI50 (DLD-1 colon): > 100 µM; GI50 (HOP-18 NSCLC): > 100 µM; GI50 (LXFL 529 NSCLC): > 100 µM |
| O=C(Nc1ccccc1)n1cc(-c2ccccn2)c(N2CCOCC2)n1 | > 100 |  | > 100 | > 100 | > 100 | > 100 | > 100 | > 100 |  |
| COc1ccc(NC(=S)C#N)cc1 |  |  |  |  |  |  |  |  | TGI (MDA-N): > 100 µM |
| CN1C(c2ccccc2)CC(C)(O)CC1c1ccccc1 (stereo not drawn) | > 100 | > 100 | > 100 |  | > 100 | > 100 | > 100 |  |  |
| NC(CP(=O)(O)O)C(=O)O (stereo not drawn) |  |  |  |  |  |  |  |  | TGI (MDA-N): > 100 µM |
